The nature of the experiment: Blocker Index (BI), expert graders smelling isovaleric acid + test material swatches against isovaleric acid reference scale. From the text:
Material selection is done by assigning two indices to a test sample material from two reference scales in order to rank odor strengths. The two reference scales are the Fragrance Fidelity Index (FFI) scale and the Blocker Index (BI) scale. The FFI ranks the ability of the test sample material to impart a perceivable odor which could cause interference when combined with another fragrance and the BI ranks the ability of the test sample material to reduce malodor perception. The two methods for assigning the indices to a test sample on the FFI and the BI reference scales are given below.
The first step in the method for assigning a BI to a test sample material on the BI reference scale is to create the BI reference swatches. […] Fabric swatches for this test are white knit polycotton (4 inch×4 inch) swatches from EMC ordered as PC 50/50. The supplier is instructed to strip the swatches first, stripping involves washing twice with a fragrance-free detergent and rinsing three times.
The BI scale contains one clean swatch with no malodor applied. […] These solutions are pipetted to the middle of the swatches. […] After drying for 30 minutes in a vented hood, the swatches are wrapped in aluminum foil to prevent odor contamination to the treated swatch. A clean untreated swatch is also included as the lowest anchor point of reference for malodor strength on the BI scale. […]

Take `COC(=O)OC1CCC=CCCC1` (centres unmarked) [Material 1139]: the BI amounted to 2.0 (Conc 10 ppm test material on swatch with 20 μL 0.08% isovaleric acid) and 2.7 (Conc 50 ppm test material on swatch with 20 μL 0.08% isovaleric acid).

These data come from patent US9714401B2, “Particles for malodor reduction” (The Procter & Gamble Company, priority 2015, dated 2017).
